Measured values as given in patent US8406870B2, “Treating cancer using electromagnetic fields in combination with other treatment regimens” (priority 2006, dated 2013).
Where two headings read alike, the source gives them in different places.

How the values were obtained:
[1] = test system: human non-small cell lung cancer (H1299) cells; assay type: cell-based
[2] = test system: mouse melanoma (B16F10) cells; assay: XTT cell proliferation assay, first set of experiments; assay type: cell-based; conditions: 24 h
Experimental: (§1) The MDA-231 and B16F10 cells were obtained from ATCC (USA). […] The experiments were performed in 35 mm Petri dishes (NUNC, USA). Cisplatin and Taxol were obtained from Sigma (USA). A cell proliferation assay kit was obtained from Biological Industries Ltd., Israel. […] XTT is cleaved to formazan (absorbs at 450-500 nm) by the “succinate-tetrazolium reductase” system of the respiratory chain of the mitochondria and is active only in viable cells. Therefore, the amount of formazan dye (A450 nm) formed directly correlates to the number of metabolically active cells in culture. The XTT assay is widely used for the measurement of cell proliferation in response to growth factors, cytokines, mitogens, nutrients, anti-cancer drugs and physiological mediators.) The media in the Petri dish was replaced by fresh media (3 ml with or without Taxol or Cisplatin), thermo-couples were placed at the center, and the dish cover was replaced by one with attached electrodes. Cell samples without […] treatment were placed in CO2 incubator at 37° C. for 24 hours, while […] treated samples were placed in CO2 incubator at 25° C., also for 24 hours. Final incubation temperature of […] treated samples was 37±0.7° C. due to heating induced by TTFields (as measured by inserted thermo-couples). […] The rate of cell proliferation was calculated as a ratio of the final cell number to the initial cell number (OD1/OD0). […] For those samples that were subjected to TTFields, two-directional 200 kHz sinusoidal TTFields were generated by an appropriate waveform generator and an amplifier. The output of the amplifier was switched between two pairs of outputs every 250 mSec, with the outputs connected to two pairs of electrodes, insulated by a high dielectric constant ceramic (e.g., PMN-PT, EDO Corporation, Utah), positioned in the Petri dish as depicted in FIG. 1. Field intensity in the medium surrounding the cells was measured to be approximately 7 V/cm.

[3] = test system: human breast cancer (MDA-231) cells; assay: as above; assay type: cell-based; conditions: 24 h
Experimental: as §1

O=P1(N(CCCl)CCCl)NCCCO1 (centres unmarked) [Cyclophosphamide]
effectiveness of combined treatment (MDA-MB-231 cells; 30 mM Cyclophosphamide + 1.75 V/cm TTFields applied for 1 hour): not effective | effectiveness of combined treatment (MDA-MB-231 cells; 30 mM Cyclophosphamide + 1.75 V/cm TTFields applied for 6 hours or more): fully effective

CC(=O)O[C@H]1C(=O)[C@@]2(C)[C@H]([C@H](OC(=O)c3ccccc3)[C@]3(O)C[C@H](OC(=O)[C@H](O)[C@@H](NC(=O)c4ccccc4)c4ccccc4)C(C)=C1C3(C)C)[C@]1(OC(C)=O)CO[C@@H]1C[C@@H]2O [Paclitaxel]
Combination index CI40 ([1]; Paclitaxel + TTFields 1.25 V/cm): 0.73 | effect on cell proliferation rate, combination versus drug alone ([1]; Paclitaxel + TTFields 1.25 V/cm and 1.75 V/cm, all concentrations studied): significant additional decrease in cell proliferation rate | Combination index CI40 ([1]; Paclitaxel + TTFields 1.75 V/cm): 0.98 | induction of cell death ([1]; Paclitaxel alone at concentrations up to 500 nM): not observed | cell proliferation rate (% of control) ([1]; Paclitaxel alone, concentrations above 200 nM, 24 h): 55% | induction of cell death ([1]; higher concentrations of Paclitaxel in combination with TTFields): cell death is induced | cell proliferation, drug alone compared with drug + TTFields ([2]; Taxol 0.05 μM): reduced cell proliferation to a lesser extent | cells died under the influence of the combined treatment ([3]; Taxol 0.05 μM + TTFields 200 kHz approx. 7 V/cm): about 40% | reduced cell proliferation as compared with the control ([3]; Taxol 0.05 μM alone): 70%

N.N.[Cl][Pt][Cl] [Cisplatin, cis-diamminedichloroplatinum(II)]
cell proliferation, drug alone compared with drug + TTFields ([2]; Cisplatin 15 μM): reduced cell proliferation to a lesser extent | cell proliferation under combined treatment ([3]; Cisplatin 15 μM + TTFields 200 kHz approx. 7 V/cm): complete cell proliferation arrest | reduced cell proliferation as compared with the control ([3]; Cisplatin 15 μM alone): 63%
